Tested on: MFM-223
Assay: drug sensitivity score (DSS), CellTiter-Blue viability (DSS (AUC-based score)); higher = stronger viability inhibition; extreme values may be limits of the assay
Settings: incubation time: 72 h
Protocol: (§1)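 DSRT with the CellTiter-Blue (resazurin reduction) viability readout, fluorescence 560/590 nm, 72 h incubation. Plates were normalised to DMSO and benzethonium chloride controls. DSS is computed from the area under the fitted dose-response curve (5 or 9 concentrations).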

In order of rising drug sensitivity score:
1. COCC1(CO)C(=O)C2CCN1CC2 (centres undefined) [Prima-1 Met]  0
2. S=P(N1CC1)(N1CC1)N1CC1 [Thio-TEPA]  0
3. CN(C)CCOc1ccc(/C(=C(/CCCl)c2ccccc2)c2ccccc2)cc1 [Toremifene]  0

Tested on: MDA-MB-468
Assay: as above
Settings: incubation time: 72 h
Protocol: as §1

In order of falling drug sensitivity score:
1. Cc1cc(Nc2cc(CN3CCOCC3)c3nc(C)c(Cc4ccc(Cl)cc4F)n3n2)n[nH]1  10.3
2. Nc1cc(C(F)(F)F)c(-c2cc(N3CCOCC3)nc(N3CCOCC3)n2)cn1 [BKM-120]  6.64
3. COC(=O)c1ccc2c(c1)NC(=O)/C2=C(\Nc1ccc(N(C)C(=O)CN2CCN(C)CC2)cc1)c1ccccc1 [BIBF 1120]  2.89
4. CN(C)CCOc1ccc(/C(=C(/CCCl)c2ccccc2)c2ccccc2)cc1 [Toremifene]  2.87
5. CN(C)c1nc(N(C)C)nc(N(C)C)n1 [Altretamine]  0
6. O=P1(N(CCCl)CCCl)NCCCO1 (centres undefined) [Cyclophosphamide]  0
7. C=C1C[C@@H]2[C@H](CC[C@]3(C)C(=O)CC[C@@H]23)[C@@]2(C)C=CC(=O)C=C12 [Exemestane]  0
8. Oc1ccc2c(c1)CC[C@H](c1ccccc1)[C@@H]2c1ccc(OCCN2CCCC2)cc1 [Lasofoxifene]  0
9. COCC1(CO)C(=O)C2CCN1CC2 (centres undefined) [Prima-1 Met]  0
10. S=P(N1CC1)(N1CC1)N1CC1 [Thio-TEPA]  0

Tested on: HCC1143
Assay: as above
Settings: incubation time: 72 h
Protocol: as §1

In order of rising drug sensitivity score:
1. CN(C)c1nc(N(C)C)nc(N(C)C)n1 [Altretamine]  0
2. COC(=O)c1ccc2c(c1)NC(=O)/C2=C(\Nc1ccc(N(C)C(=O)CN2CCN(C)CC2)cc1)c1ccccc1 [BIBF 1120]  0
3. O=P1(N(CCCl)CCCl)NCCCO1 (centres undefined) [Cyclophosphamide]  0
4. C=C1C[C@@H]2[C@H](CC[C@]3(C)C(=O)CC[C@@H]23)[C@@]2(C)C=CC(=O)C=C12 [Exemestane]  0
5. Oc1ccc2c(c1)CC[C@H](c1ccccc1)[C@@H]2c1ccc(OCCN2CCCC2)cc1 [Lasofoxifene]  0
6. COCC1(CO)C(=O)C2CCN1CC2 (centres undefined) [Prima-1 Met]  0
7. S=P(N1CC1)(N1CC1)N1CC1 [Thio-TEPA]  0
8. CN(C)CCOc1ccc(/C(=C(/CCCl)c2ccccc2)c2ccccc2)cc1 [Toremifene]  0
9. Nc1cc(C(F)(F)F)c(-c2cc(N3CCOCC3)nc(N3CCOCC3)n2)cn1 [BKM-120]  5.44
10. Cc1cc(Nc2cc(CN3CCOCC3)c3nc(C)c(Cc4ccc(Cl)cc4F)n3n2)n[nH]1  11.4

Tested on: CAL-148
Assay: as above
Settings: incubation time: 72 h
Protocol: as §1

In order of falling drug sensitivity score:
1. Nc1cc(C(F)(F)F)c(-c2cc(N3CCOCC3)nc(N3CCOCC3)n2)cn1 [BKM-120]  8.55
2. Cc1cc(Nc2cc(CN3CCOCC3)c3nc(C)c(Cc4ccc(Cl)cc4F)n3n2)n[nH]1  0
3. CN(C)c1nc(N(C)C)nc(N(C)C)n1 [Altretamine]  0
4. COC(=O)c1ccc2c(c1)NC(=O)/C2=C(\Nc1ccc(N(C)C(=O)CN2CCN(C)CC2)cc1)c1ccccc1 [BIBF 1120]  0
5. O=P1(N(CCCl)CCCl)NCCCO1 (centres undefined) [Cyclophosphamide]  0
6. C=C1C[C@@H]2[C@H](CC[C@]3(C)C(=O)CC[C@@H]23)[C@@]2(C)C=CC(=O)C=C12 [Exemestane]  0
7. Oc1ccc2c(c1)CC[C@H](c1ccccc1)[C@@H]2c1ccc(OCCN2CCCC2)cc1 [Lasofoxifene]  0
8. COCC1(CO)C(=O)C2CCN1CC2 (centres undefined) [Prima-1 Met]  0
9. S=P(N1CC1)(N1CC1)N1CC1 [Thio-TEPA]  0
10. CN(C)CCOc1ccc(/C(=C(/CCCl)c2ccccc2)c2ccccc2)cc1 [Toremifene]  0

Tested on: MDA-MB-468
Assay: not given
Settings: 72 h
Summary of the method: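 Seeding of breast cancer cell lines (20 µl suspension) was done into 384-well plates pre-loaded with compound at 5 concentrations, 10-fold apart, covering a compound-specific 10,000-fold range. The plates were incubated for 72 h, read for CellTox Green fluorescence (485/520 nm), and then read for CellTiter-Glo luminescence after 10 min at room temperature. Every plate was normalised to 0.1 % DMSO and a positive kill control. Curve fitting gave the EC50, censored at the top concentration.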

In order of falling “EC50, CellTiter-Glo” value:
1. COC(=O)c1ccc2c(c1)NC(=O)/C2=C(\Nc1ccc(N(C)C(=O)CN2CCN(C)CC2)cc1)c1ccccc1 [Nintedanib]  3360 nM
2. Nc1cc(C(F)(F)F)c(-c2cc(N3CCOCC3)nc(N3CCOCC3)n2)cn1 [Buparlisib]  2710 nM
3. CCOC(=O)CCNc1cc(N2CCc3ccccc3CC2)nc(-c2ccccn2)n1 [GSK-J4]  1890 nM
4. COc1cc(O)c2c(c1)/C=C/C[C@H](O)[C@H](O)C(=O)/C=C\C[C@H](C)OC2=O [(5Z)-7-Oxozeaenol]  953 nM
5. Cc1cc(Nc2cc(CN3CCOCC3)c3nc(C)c(Cc4ccc(Cl)cc4F)n3n2)n[nH]1 [Gandotinib]  711 nM
6. CNC(=O)c1cccc(-c2ccc3c(N4CCOC[C@@H]4C)nc(N4CCOC[C@@H]4C)nc3n2)c1 [AZD2014]  497 nM

From the supplement of paper PMC4862054
